Common to all, as to test: DTP human tumour cell line panel, 48 h
The test system of test [1] is A549.
Test [2] has as its system CAKI-1.
In test [3] the test system is COLO 205.
The test system of test [4] is HCC 2998.
Test [5] relates to HCT-15.
Test [6] deals with HT-29.
In test [7] the test system is K562.
The test system of test [8] is M14.
Test [9] deals with RPMI-8226.
Test [10] deals with RXF 393.
The test system of test [11] is SF-295.
The subject of test [12] is SK-MEL-28.
Test [13] has as its system SN12C.
Test [14] deals with SNB-78.
In test [15] the test system is TK-10.
For test [16], the system named is HOP-62.
Test [17] has as its system Malme-3M.
Test [18] relates to SK-MEL-2.
For test [19], the system named is XF498.
The test system of test [20] is MDA-MB-435.

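All cell lines were grown in 96-well plates and treated with compound for 48 hours. GI50 marks 50% less growth.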 The source made the active and inactive calls. No stated cut-off is given here; in the data, active = GI50 up to about 1.1 µM and inactive = higher.

By GI50 is commonly meant the concentration giving 50% growth inhibition.

Consider `COC12OCCN(C)C1=CC(=O)C1N=NCC12` (stereo not drawn), for which the GI50 in test [1] is > 100 µM (inactive); in test [2], > 100 µM (inactive); in test [3], > 100 µM (inactive); in test [4] it was > 100 µM (inactive); in test [5], more than 100 µM; in test [6] it was > 100 µM (inactive). The GI50 in test [7], in test [8], in test [9], in test [10], in [11] and in test [12] was > 100 µM (inactive) in each case. The GI50 in [13], in test [14] and in test [15] was > 100 µM (inactive) in each case.
Consider `C1CSC(=[N+]2CC[N+](=C3SCCS3)CC2)S1`, for which the GI50 was > 100 µM (inactive) in [1]; > 100 µM (inactive) in test [2]; > 100 µM (inactive) in test [3]; > 100 µM (inactive) in test [4]; more than 100 µM in test [5]; > 100 µM (inactive) in test [16]. Besides, the GI50 in [6], in [7], in [8], in test [17], in test [9] and in [10] was > 100 µM (inactive) throughout. In addition, the GI50 in test [11], in [12], in [18], in test [13], in test [14] and in [15] was > 100 µM (inactive) in each case.
As to `C[C@@H](C1CCC2C3C(=CC(=O)[C@@]21C)[C@H](C)[C@]1(CCC(=O)O1)C1OC31)[C@H]1C[C@]2(C)O[C@@](C)(O1)OC2(C)C` (stereo partly drawn), the GI50 in [1] was > 100 µM (inactive); in [2], > 100 µM (inactive); in test [3], > 100 µM (inactive); in [5] it was more than 100 µM; in test [6], > 100 µM (inactive); in test [7], > 100 µM (inactive). Moreover, the GI50 in [8], in [9], in test [10], in test [11], in test [12] and in test [13] was > 100 µM (inactive) each time. Moreover, the GI50 in test [15] and in test [19] was > 100 µM (inactive) in each case.
As for `CC1=CC2C(C=C1)S(=O)(=O)N1CC21c1ccccc1` (stereo not drawn), the GI50 in test [1] is > 100 µM (inactive); in [2], 44.2 µM (inactive); in [3], > 100 µM (inactive); in [4] it was > 100 µM (inactive); in [5], more than 100 µM; in [16], > 100 µM (inactive). The GI50 was > 100 µM (inactive) in test [6]; 69.2 µM (inactive) in [7]; > 100 µM (inactive) in [8]; > 100 µM (inactive) in test [17]; > 100 µM (inactive) in [9]; > 100 µM (inactive) in [11]. Also, the GI50 in [12], in test [18], in test [13], in test [14] and in test [15] was > 100 µM (inactive) throughout.
`C[n+]1cn(CC(=O)c2ccccc2)c(C(N)=O)c1N`: the GI50 was > 100 µM (inactive) in test [1]; > 100 µM (inactive) in test [2]; 41.4 µM (inactive) in test [3]; > 100 µM (inactive) in test [4]; 80.7 µM in test [5]; > 100 µM (inactive) in test [16]. For the same compound, the GI50 in [6] was > 100 µM (inactive); in test [7], > 10 µM (inactive); in test [8] it was > 100 µM (inactive); in test [17], > 100 µM (inactive); in test [9] it was 45.1 µM (inactive); in test [11], > 100 µM (inactive). Also, the GI50 in test [12], in test [18], in [13], in test [14] and in [15] was > 100 µM (inactive) in each case.
Regarding `CN(C)C(=S)/N=c1\ss/c(=N\C(=S)N(C)C)n1-c1cccc(Cl)c1`, the GI50 in test [1] was > 100 µM (inactive); in test [2] it was > 100 µM (inactive); in test [3], > 100 µM (inactive); in test [4], > 100 µM (inactive); in test [5], more than 100 µM; in [16], > 100 µM (inactive). Further, the GI50 is > 100 µM (inactive) in test [6]; > 100 µM (inactive) in test [7]; > 100 µM (inactive) in [8]; > 100 µM (inactive) in test [17]; > 100 µM (inactive) in [9]; 79.6 µM (inactive) in test [10]. Moreover, the GI50 in test [11], in test [12], in test [18], in [13], in test [14] and in test [15] was > 100 µM (inactive) throughout.
Consider `CN(C)CCCNc1ncnc2[nH]cnc12`, for which the GI50 is > 100 µM (inactive) in test [1]; > 100 µM (inactive) in [2]; > 100 µM (inactive) in [3]; > 100 µM (inactive) in test [4]; more than 100 µM in [5]; > 100 µM (inactive) in test [16]. For the same compound, the GI50 in test [6], in test [7], in test [8], in test [20], in [17] and in [9] was > 100 µM (inactive) each time. Further, the GI50 in test [10], in [11], in test [12], in test [18], in test [13] and in [15] was > 100 µM (inactive) throughout.
Regarding `COC(=O)c1ccccc1C1CN=NC12Cc1c(ccc3c1CCC3)C2=O` (stereo not drawn), the GI50 is > 100 µM (inactive) in [1]; > 100 µM (inactive) in test [2]; 47.8 µM (inactive) in [3]; > 100 µM (inactive) in test [4]; 41.5 µM in [5]; > 100 µM (inactive) in [16]. The GI50 was 43.5 µM (inactive) in test [6]; 39.1 µM (inactive) in [7]; 46.5 µM (inactive) in test [8]; 23.9 µM (inactive) in test [20]; > 100 µM (inactive) in test [17]; 28.8 µM (inactive) in test [9]. Further, the GI50 in test [10] was 48.6 µM (inactive); in [11] it was 47.3 µM (inactive); in test [12], 95.1 µM (inactive); in [18], 35.1 µM (inactive); in test [13] it was 95.3 µM (inactive); in [15] it was > 100 µM (inactive).
Take `C[C@H]1[C@H](C)N(Cc2ccccc2)P(=O)(C(O)/C=C/c2ccccc2)N1Cc1ccccc1` (stereo partly drawn): the GI50 in test [1] was 8.07 µM (inactive); in test [2], 8.28 µM (inactive); in test [3] it was 6.64 µM (inactive); in test [4], 6.3 µM (inactive); in test [5], 9.29 µM; in test [16] it was 8.41 µM (inactive). In addition, the GI50 is 5.24 µM (inactive) in test [6]; 7.74 µM (inactive) in [7]; 4.62 µM (inactive) in test [8]; 4.33 µM (inactive) in test [20]; 5.58 µM (inactive) in test [17]; 6.22 µM (inactive) in test [9]. In addition, the GI50 in test [10] is 6.24 µM (inactive); in test [11], 6.95 µM (inactive); in [12] it was 8.51 µM (inactive); in test [18], 4.7 µM (inactive); in test [13], 4.6 µM (inactive); in test [15], 7.01 µM (inactive).
Regarding `O=C(C#Cc1ccccc1)N1c2ccccc2CC1c1c[nH]c2ccccc12` (stereo not drawn), the GI50 in test [1] was 18.6 µM (inactive); in [2] it was 11.4 µM (inactive); in test [3] it was 14.5 µM (inactive); in [4] it was 17.2 µM (inactive); in test [5], 11.5 µM; in test [16], 8.95 µM (inactive). The GI50 in [6] was 18 µM (inactive); in test [7], 10.7 µM (inactive); in [8] it was 15 µM (inactive); in [17], 14.9 µM (inactive); in [9], 13 µM (inactive); in [10], 4.48 µM (inactive). For the same compound, the GI50 is 15.5 µM (inactive) in [11]; 14.9 µM (inactive) in test [12]; 12.5 µM (inactive) in test [18]; 13 µM (inactive) in test [13]; 13 µM (inactive) in test [14]; 21.4 µM (inactive) in test [15].
Take `O=c1oc2ccccc2cc1-c1nnc(-c2ccccc2)s1`: the GI50 was 38.5 µM (inactive) in [1]; > 64.9 µM (inactive) in test [2]; > 53 µM (inactive) in test [3]; 12 µM (inactive) in test [4]; 6.73 µM in test [5]; 16.1 µM (inactive) in test [16]. Moreover, the GI50 is 10.1 µM (inactive) in [6]; 9.89 µM (inactive) in test [7]; > 56.1 µM (inactive) in test [8]; 1.65 µM (inactive) in test [20]; > 100 µM (inactive) in test [17]; > 55.7 µM (inactive) in test [9]. Moreover, the GI50 in test [10] is 17.1 µM (inactive); in [11], 28.2 µM (inactive); in test [12], 98.6 µM (inactive); in [18], > 48.8 µM (inactive); in test [13], 60.5 µM (inactive); in [15], > 36.6 µM (inactive).
For `O=C1Nc2cccc3ncn(c23)C2=C1CCCC2`, the GI50 in test [1] is > 100 µM (inactive); in test [3], > 100 µM (inactive); in test [4], > 100 µM (inactive); in [5], more than 100 µM; in [7], > 100 µM (inactive); in [17] it was > 100 µM (inactive). Also, the GI50 in test [9], in test [10], in test [11], in [12], in [18] and in [13] was > 100 µM (inactive) in each case. Besides, the GI50 in test [14] and in [15] was > 100 µM (inactive) throughout.

The values above are taken from ChEMBL document CHEMBL1201862, “PubChem BioAssay data set” (2004).
